test system: T9A4 human hepatic cells; assay: In vitro analysis of the hypocholesterolaemic effect: de novo synthesis of cholesterol measured by incorporation of C14-acetate; format: cell-based; conditions: main purified oxylanosterol molecules
Protocol: In the present context, the hypocholesterolaemic effect of the present product is evaluated in a qualitative manner on the model of T9A4 human hepatic cells cultured in vitro. Although it is known that such results cannot be transferred directly to man in vivo, they nevertheless provide useful indications. The hypocholesterolaemic effect is evaluated by measurement of the de novo synthesis of cholesterol on human hepatic cells in culture by measuring the incorporation of C^14-acetate. A means of evaluation of this de novo synthesis is described in a method presented below.
T9A4 human hepatic cells are grown on LCM medium (Biofluids, Rockville, Md.) at 37° C. under 3.5% CO2. The cells are seeded in 24-well culture boxes and incubated to confluence with 1 mM C14-acetate (1 mCi/mol, Amersham) for 20 hours in the absence (control) or in the presence of the extract rich in oxygenated derivatives of lanosterol obtained from fungi and/or purified fractions, dissolved in methanol.
A lipid extraction is carried out by incubation in a hexane:isopropanol (3:2) mixtures for 30 minutes at ambient temperature. The extract is then dried under nitrogen and then redissolved in hexane and subjected to thin layer high performance chromatography (Merck, Darmstadt, Germany) with a hexane:diethyl ether:acetic acid (75:25:1) mixture as the solvent. The cholesterol neosynthesis is determined by measuring the incorporation of C^14-acetate within the cholesterol with the aid of an imager (Camberra Packard, Zurich, Switzerland) and is expressed in % of the control.
ID50 represents the dose which inhibits the cholesterol synthesis by 50%. It can be seen that the various extracts have a considerable hypocholesterolaemic activity.

| Compound | ID50 |
| --- | --- |
| C/C(C=O)=C\CC[C@@H](C)[C@H]1CC[C@@]2(C)C3=CC[C@H]4C(C)(C)C(=O)CC[C@]4(C)C3=CC[C@]12C [Ganoderal A] | 7 μq/ml |
| C/C(=C\CC[C@@H](C)[C@H]1CC[C@@]2(C)C3=CC[C@H]4C(C)(C)[C@@H](O)CC[C@]4(C)C3=CC[C@]12C)C(=O)O [Ganoderic acid Y] | 0.5 μq/ml |
| C/C(=C\CC[C@@H](C)[C@H]1CC[C@@]2(C)C3=CC[C@H]4C(C)(C)C(=O)CC[C@]4(C)C3=CC[C@]12C)CO [Ganoderol A] | 1 μq/ml |
| C/C(=C\CC[C@@H](C)[C@H]1CC[C@@]2(C)C3=CC[C@H]4C(C)(C)[C@@H](O)CC[C@]4(C)C3=CC[C@]12C)CO [Ganoderol B] | 10 μq/ml |
